Key:
Details in all cases: Compound concentration 10.0 uM
[1] = biological target: Cholecystokinin receptor type A (Homo sapiens) (UniProt P32238); test: CCKA/H Eurofins SafetyScreen44 (BI)
[2] = biological target: 5-hydroxytryptamine receptor 1B (Homo sapiens) (UniProt P28222)
[3] = biological target: 5-hydroxytryptamine receptor 2C (Homo sapiens) (UniProt P28335)
[4] = biological target: 5-hydroxytryptamine receptor 5A (Homo sapiens) (UniProt P47898)
[5] = biological target: 5-hydroxytryptamine receptor 6 (Homo sapiens) (UniProt P50406)
Chain of 5-hydroxytryptamine receptor 6 (Homo sapiens) (P50406 whole entry): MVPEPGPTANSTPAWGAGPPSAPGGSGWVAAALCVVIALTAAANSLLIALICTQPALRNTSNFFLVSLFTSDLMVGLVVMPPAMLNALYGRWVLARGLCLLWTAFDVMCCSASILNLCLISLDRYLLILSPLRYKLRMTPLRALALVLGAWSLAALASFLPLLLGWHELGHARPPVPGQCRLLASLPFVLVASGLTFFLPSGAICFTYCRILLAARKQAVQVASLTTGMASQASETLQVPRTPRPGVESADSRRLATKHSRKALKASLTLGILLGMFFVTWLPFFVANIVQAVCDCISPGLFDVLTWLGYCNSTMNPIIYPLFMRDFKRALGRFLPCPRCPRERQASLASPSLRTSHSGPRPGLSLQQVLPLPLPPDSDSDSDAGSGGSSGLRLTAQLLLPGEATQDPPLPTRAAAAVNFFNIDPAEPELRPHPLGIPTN

[6] = biological target: 5-hydroxytryptamine receptor 7 (Homo sapiens) (UniProt P34969)
[7] = biological target: D(3) dopamine receptor (Homo sapiens) (UniProt P35462)
Chain of D(3) dopamine receptor (Homo sapiens) (P35462 whole entry): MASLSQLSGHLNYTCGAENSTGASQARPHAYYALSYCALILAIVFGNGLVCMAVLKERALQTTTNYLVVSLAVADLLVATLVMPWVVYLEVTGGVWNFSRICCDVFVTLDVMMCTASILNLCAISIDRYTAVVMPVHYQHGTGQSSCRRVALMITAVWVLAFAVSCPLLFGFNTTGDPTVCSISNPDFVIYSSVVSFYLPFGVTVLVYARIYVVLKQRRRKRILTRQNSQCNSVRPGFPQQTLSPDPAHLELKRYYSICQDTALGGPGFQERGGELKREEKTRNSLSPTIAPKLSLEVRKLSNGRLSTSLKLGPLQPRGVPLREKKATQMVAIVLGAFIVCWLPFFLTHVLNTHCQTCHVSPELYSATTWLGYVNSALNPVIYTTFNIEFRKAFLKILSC

[8] = biological target: Sodium-dependent dopamine transporter (Homo sapiens) (UniProt Q01959)
Chain of Sodium-dependent dopamine transporter (Homo sapiens) (Q01959 whole entry): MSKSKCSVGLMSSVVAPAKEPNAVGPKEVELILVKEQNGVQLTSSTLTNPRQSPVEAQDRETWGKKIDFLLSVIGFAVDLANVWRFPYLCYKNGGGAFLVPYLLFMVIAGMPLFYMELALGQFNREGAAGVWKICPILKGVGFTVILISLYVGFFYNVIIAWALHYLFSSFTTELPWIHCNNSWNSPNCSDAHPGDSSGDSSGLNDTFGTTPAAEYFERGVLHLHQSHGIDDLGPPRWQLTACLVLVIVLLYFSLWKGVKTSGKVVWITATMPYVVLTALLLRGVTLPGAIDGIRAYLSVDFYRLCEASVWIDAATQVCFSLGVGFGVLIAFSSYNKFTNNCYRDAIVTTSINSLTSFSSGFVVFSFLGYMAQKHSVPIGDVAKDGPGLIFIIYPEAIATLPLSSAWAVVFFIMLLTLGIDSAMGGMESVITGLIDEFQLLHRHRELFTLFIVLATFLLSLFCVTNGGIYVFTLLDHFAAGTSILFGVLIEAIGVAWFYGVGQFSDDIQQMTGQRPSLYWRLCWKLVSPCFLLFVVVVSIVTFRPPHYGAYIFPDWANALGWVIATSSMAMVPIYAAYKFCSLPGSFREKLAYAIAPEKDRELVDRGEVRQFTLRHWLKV

[9] = biological target: Delta-type opioid receptor (Homo sapiens) (UniProt P41143)
Chain of Delta-type opioid receptor (Homo sapiens) (P41143 whole entry): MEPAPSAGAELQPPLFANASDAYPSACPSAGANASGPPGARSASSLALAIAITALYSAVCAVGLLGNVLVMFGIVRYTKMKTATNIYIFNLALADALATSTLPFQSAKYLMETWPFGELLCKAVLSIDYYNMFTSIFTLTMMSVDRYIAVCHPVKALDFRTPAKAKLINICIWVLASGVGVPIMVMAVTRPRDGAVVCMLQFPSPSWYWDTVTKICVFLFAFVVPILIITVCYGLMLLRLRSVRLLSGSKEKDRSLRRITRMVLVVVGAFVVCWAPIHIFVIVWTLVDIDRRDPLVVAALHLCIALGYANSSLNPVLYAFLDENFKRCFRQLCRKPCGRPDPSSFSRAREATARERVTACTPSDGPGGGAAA

[10] = biological target: Kappa-type opioid receptor (Homo sapiens) (UniProt P41145)
Chain of Kappa-type opioid receptor (Homo sapiens) (P41145 whole entry): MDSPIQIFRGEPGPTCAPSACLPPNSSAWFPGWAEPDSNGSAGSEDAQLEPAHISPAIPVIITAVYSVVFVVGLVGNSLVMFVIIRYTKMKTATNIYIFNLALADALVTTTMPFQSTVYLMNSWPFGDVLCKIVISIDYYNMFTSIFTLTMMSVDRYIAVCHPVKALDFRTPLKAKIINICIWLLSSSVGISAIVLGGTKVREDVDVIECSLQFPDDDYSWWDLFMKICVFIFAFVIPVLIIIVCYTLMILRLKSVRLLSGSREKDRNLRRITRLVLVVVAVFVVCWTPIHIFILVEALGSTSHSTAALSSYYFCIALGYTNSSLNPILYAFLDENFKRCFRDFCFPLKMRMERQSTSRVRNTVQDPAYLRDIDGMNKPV

[11] = biological target: Histamine H2 receptor (Homo sapiens) (UniProt P25021)
Chain of Histamine H2 receptor (Homo sapiens) (P25021 whole entry): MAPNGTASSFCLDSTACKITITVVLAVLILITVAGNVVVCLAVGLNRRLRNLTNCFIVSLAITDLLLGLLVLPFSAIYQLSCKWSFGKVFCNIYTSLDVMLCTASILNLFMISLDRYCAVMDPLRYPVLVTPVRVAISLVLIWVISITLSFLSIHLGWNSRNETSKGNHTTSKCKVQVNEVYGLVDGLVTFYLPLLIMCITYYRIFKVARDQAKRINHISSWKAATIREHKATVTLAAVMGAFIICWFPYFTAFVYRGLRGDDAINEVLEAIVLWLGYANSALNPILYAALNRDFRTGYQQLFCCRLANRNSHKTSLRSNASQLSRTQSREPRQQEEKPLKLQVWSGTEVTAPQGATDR

[12] = biological target: Histamine H3 receptor (Homo sapiens) (UniProt Q9Y5N1)
Chain of Histamine H3 receptor (Homo sapiens) (Q9Y5N1 whole entry): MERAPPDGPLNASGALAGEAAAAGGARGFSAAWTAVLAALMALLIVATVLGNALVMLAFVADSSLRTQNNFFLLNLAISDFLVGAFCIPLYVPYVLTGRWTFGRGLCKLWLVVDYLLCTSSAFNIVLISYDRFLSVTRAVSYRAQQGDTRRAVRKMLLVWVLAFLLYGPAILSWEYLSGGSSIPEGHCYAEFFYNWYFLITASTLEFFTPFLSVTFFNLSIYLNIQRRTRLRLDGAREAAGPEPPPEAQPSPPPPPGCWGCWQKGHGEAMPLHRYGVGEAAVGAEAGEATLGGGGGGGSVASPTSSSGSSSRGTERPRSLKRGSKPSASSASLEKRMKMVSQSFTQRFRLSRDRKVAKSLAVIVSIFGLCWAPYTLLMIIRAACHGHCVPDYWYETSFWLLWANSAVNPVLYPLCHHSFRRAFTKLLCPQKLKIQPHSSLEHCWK

[13] = biological target: T1, Alpha-2C adrenergic receptor (Homo sapiens) (UniProt P18825)
T1 sequence (whole entry): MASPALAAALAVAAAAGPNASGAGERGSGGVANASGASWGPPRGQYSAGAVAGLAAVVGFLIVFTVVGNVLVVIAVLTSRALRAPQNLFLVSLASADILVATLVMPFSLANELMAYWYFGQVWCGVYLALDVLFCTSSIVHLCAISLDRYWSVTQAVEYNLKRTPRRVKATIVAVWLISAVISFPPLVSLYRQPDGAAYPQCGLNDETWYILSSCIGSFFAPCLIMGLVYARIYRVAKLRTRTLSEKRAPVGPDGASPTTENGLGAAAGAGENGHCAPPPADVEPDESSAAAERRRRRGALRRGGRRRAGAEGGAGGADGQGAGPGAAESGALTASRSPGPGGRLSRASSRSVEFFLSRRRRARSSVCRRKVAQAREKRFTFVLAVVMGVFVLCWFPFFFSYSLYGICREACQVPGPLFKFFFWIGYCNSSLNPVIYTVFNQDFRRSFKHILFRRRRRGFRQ

[14] = biological target: T2, Muscarinic acetylcholine receptor M2 (Homo sapiens) (UniProt P08172)
T2 sequence (whole entry): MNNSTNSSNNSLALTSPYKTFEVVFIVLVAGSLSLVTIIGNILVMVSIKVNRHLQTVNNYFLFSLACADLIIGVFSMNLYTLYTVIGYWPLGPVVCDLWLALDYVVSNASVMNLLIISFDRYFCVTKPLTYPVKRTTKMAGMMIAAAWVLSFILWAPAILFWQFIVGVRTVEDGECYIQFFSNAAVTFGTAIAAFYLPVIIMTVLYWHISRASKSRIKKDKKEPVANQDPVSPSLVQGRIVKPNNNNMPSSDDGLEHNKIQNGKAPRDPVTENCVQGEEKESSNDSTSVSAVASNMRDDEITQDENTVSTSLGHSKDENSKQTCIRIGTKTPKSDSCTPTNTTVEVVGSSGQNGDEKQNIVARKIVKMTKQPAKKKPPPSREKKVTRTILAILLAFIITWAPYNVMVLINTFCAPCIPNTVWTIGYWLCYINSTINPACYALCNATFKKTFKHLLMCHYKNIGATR

[15] = biological target: Beta-3 adrenergic receptor (Homo sapiens) (UniProt P13945)
Chain of Beta-3 adrenergic receptor (Homo sapiens) (P13945 whole entry, looked up): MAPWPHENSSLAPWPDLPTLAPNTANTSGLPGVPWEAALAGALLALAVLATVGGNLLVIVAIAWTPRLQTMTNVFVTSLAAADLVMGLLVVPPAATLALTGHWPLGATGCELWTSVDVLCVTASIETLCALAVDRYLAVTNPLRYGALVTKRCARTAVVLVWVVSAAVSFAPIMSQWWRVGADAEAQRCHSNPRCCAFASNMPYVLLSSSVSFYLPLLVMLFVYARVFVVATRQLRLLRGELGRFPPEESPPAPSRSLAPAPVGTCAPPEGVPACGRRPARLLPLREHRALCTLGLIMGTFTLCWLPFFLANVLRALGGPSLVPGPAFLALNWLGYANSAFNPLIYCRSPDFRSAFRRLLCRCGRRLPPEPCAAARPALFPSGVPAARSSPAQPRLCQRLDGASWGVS

[16] = biological target: GABA-A receptor; anion channel (Rattus norvegicus) (UniProt O09028+P15431+P18506+P18508+P19969+P20236+P23574+P23576+P28471+P28473+P30191+P62813+P63079+P63138+Q91ZM7+Q9ES14)
[17] = biological target: T3, Alpha-1D adrenergic receptor (Homo sapiens) (UniProt P25100)
T3 sequence (whole entry): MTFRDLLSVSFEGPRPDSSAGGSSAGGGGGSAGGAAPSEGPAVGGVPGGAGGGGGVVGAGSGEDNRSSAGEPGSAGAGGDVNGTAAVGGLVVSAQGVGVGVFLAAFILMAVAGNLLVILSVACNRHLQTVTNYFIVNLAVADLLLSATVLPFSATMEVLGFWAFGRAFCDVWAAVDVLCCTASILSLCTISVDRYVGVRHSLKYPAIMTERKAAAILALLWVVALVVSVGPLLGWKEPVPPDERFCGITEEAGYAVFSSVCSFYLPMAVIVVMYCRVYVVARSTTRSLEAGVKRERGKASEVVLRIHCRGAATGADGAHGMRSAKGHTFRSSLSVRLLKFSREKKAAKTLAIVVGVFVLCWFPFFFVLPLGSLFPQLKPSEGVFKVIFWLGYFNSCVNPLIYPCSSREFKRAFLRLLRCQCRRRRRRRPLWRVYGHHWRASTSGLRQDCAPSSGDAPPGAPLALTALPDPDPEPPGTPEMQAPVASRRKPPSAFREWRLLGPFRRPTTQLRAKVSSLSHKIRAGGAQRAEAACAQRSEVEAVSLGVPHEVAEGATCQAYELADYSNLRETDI

[18] = biological target: Sigma intracellular receptor 2 (Homo sapiens) (UniProt Q5BJF2)
Chain of Sigma intracellular receptor 2 (Homo sapiens) (Q5BJF2 whole entry): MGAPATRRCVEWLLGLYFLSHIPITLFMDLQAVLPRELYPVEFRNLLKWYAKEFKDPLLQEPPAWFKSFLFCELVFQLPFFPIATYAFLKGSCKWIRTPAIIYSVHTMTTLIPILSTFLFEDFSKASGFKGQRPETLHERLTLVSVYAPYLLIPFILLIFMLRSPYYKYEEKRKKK

Chain of 5-hydroxytryptamine receptor 5A (Homo sapiens) (P47898 whole entry): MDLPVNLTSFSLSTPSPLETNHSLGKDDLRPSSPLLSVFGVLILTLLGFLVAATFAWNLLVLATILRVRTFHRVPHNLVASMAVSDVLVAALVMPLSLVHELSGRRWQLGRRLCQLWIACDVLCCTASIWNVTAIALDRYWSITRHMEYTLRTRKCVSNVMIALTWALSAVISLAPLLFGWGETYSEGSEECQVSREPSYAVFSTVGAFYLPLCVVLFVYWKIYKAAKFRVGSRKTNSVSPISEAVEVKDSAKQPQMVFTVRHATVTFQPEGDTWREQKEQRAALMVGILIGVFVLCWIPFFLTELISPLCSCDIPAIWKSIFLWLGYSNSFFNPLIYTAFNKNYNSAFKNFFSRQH
Chain of 5-hydroxytryptamine receptor 2C (Homo sapiens) (P28335 whole entry): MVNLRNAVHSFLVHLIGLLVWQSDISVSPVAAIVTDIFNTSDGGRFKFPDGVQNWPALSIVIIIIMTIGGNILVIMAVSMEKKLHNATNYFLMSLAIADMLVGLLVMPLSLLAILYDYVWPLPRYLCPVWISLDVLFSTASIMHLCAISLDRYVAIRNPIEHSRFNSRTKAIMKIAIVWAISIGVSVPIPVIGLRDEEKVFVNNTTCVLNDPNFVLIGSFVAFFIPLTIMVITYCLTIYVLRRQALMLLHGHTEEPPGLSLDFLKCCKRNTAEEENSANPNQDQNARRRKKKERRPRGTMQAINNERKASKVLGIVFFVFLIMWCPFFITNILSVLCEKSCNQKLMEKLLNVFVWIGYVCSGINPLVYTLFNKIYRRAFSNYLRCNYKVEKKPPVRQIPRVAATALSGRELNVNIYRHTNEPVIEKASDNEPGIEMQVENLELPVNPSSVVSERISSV
Chain of 5-hydroxytryptamine receptor 1B (Homo sapiens) (P28222 whole entry): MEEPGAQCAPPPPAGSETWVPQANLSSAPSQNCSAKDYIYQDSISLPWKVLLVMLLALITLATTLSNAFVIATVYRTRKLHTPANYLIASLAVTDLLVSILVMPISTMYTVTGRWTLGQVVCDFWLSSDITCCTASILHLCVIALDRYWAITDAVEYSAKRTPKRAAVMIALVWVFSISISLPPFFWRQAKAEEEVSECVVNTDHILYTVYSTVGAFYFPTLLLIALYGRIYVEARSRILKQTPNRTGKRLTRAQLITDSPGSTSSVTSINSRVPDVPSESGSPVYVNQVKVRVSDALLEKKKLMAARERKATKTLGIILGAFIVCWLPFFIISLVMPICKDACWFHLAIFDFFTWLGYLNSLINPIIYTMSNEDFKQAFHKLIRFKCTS

Structure (SMILES)	residual activity [1] [%]	inhibition [2] [%]	inhibition [3] [%]	inhibition [4] [%]	inhibition [5] [%]	inhibition [6] [%]	inhibition [7] [%]	inhibition [8] [%]	inhibition [9] [%]	inhibition [10] [%]	inhibition [11] [%]	inhibition [12] [%]	inhibition [13] [%]	inhibition [14] [%]	inhibition [15] [%]	inhibition [16] [%]	inhibition [17] [%]	inhibition [18] [%]
Cc1cc(OCCC(C)(C)O)cc(C)c1-c1ccc(F)c2c1CC[C@H]2Oc1ccc2c(c1)OC[C@H]2CC(=O)O	103	18.6	-4.94	5.48	-2.53	13	-6.42	26.8	24.4	8.37	8.54	9.84	14.5	-3.23	20.2	66.7	5.84	13.1
COCCCS(=O)(=O)c1cc(C)c(-c2ccc(F)c3c2CC[C@H]3Oc2ccc3c(c2)OC[C@H]3CC(=O)O)c(C)c1	82	5.08	2.87	9.98	-8.04	3.29	20.4	1.43	20.8	20.6	15	3	5.58	-3.61	11.6	30.7	-5.9	-0.91

From ChEMBL document CHEMBL5058643, “Data for DCP probe BI-2081” (2022)
